Measured values: patent US9597408B2, “Peptide-mediated non-covalent delivery of active agents across the blood-brain barrier” (Mayo Foundation for Medical Education and Research, priority 2009, dated 2017)
Where no end group is shown, it is not given here.

What was measured:
[1] = tested on: BBB; set-up: species or system mice; details: mouse, in vivo
Description: FIG. 8 illustrates the testing mutant ApoE peptides for their potential as non-covalent transporters of proteins across the BBB. A—no peptide, no β-gal; B—K16ApoE (SEQ ID NO: 22)+β-gal; C—K16L3N7 (SEQ ID NO: 126)+β-gal; D—K16L3L20 (SEQ ID NO: 127)+β-gal; E—K16N7L20 (SEQ ID NO: 128)+β-gal.
β-galactosidase was mixed with equal amounts of various peptide transporters and injected into mice. Slides were prepared using 25 μm sections of the mice brains one hour after injection followed by development of enzyme staining (FIG. 8).

[2] = tested on: BBB; set-up: species or system mice; details: mouse, in vivo; remark: listed apart in the source
Description: The delivery of radiolabeled IgG across the BBB in different brain regions in mice with and without the peptide K16ApoE (SEQ ID NO:22) was evaluated. In addition, the integrity of the BBB after delivery of IgG with K16ApoE (SEQ ID NO: 22) was examined. […] of ^125I-IgG were mixed with varying amounts of the peptide K16ApoE (SEQ ID NO: 22) (0-55 μmol), and the mixture injected intravenously into the mice. ^131I-IgG not complexed with the peptide was injected into the same animals at 59 minutes and allowed to circulate for 1 minute subsequent to the initial femoral vein injection of ^125I-IgG+K16ApoE (SEQ ID NO: 22). Uptake of ^125I-IgG and ^131I-IgG were measured in different areas of the brain after 60 minutes.
PS values reflect the amount of ^125I-IgG that has crossed the BBB, whereas Vp values indicate the amount of ^131I-IgG at the BBB but which has not crossed the BBB.

[3] = tested on: BBB; set-up: species or system mice; details: mouse, in vivo; remark: listed apart in the source
Description: Each mouse (represented by A through G) received an injection of K16ApoE (SEQ ID NO: 22), followed by injection of β-galactosidase at the indicated times. Brain slices were made 4 hours after β-galactosidase injection and were followed by staining for activity of the enzyme. A—β-galactosidase was injected 1 minute after K16ApoE (SEQ ID NO: 22) injection. B—β-galactosidase was injected 5 minutes after K16ApoE (SEQ ID NO: 22) injection. C—β-galactosidase was injected 10 minutes after K16ApoE (SEQ ID NO: 22) injection. D—β-galactosidase was injected 30 minutes after K16ApoE (SEQ ID NO: 22) injection. E—β-galactosidase was injected 1 hour after K16ApoE (SEQ ID NO: 22) injection. F—β-galactosidase was injected 2 hours after K16ApoE (SEQ ID NO: 22) injection. G—β-galactosidase was injected 4 hours after K16ApoE (SEQ ID NO: 22) injection. H—positive control (β-galactosidase mixed with K16ApoE (SEQ ID NO: 22) was injected, brain slices were made 4 hours after the injection and proceeded for staining for enzyme activity).
A transporter that efficiently carries a protein in the brain should not do so by impairing the integrity of the BBB. To evaluate if K16ApoE (SEQ ID NO: 22) impairs the integrity of the BBB, the peptide was first injected intravenously, then injected β-galactosidase at different time intervals. The control mice received the enzyme mixed with the peptide. […]

[4] = tested on: mouse brain; test: microSPECT imaging of delivery of radioiodinated human IgG and IgM; type: in vivo
Description: Micro SPECT/CT experiments were conducted on a Gamma Medica X SPECT System (GE Healthcare). Human IgG (Sigma) and IgM (Sigma) were labeled to a high specific activity using the Chloramine-T method. […] Immediately subsequent to the intravenous bolus injection, the mice were imaged every hour for a total of 6 hours. At the completion of the 6 hour time point, each mouse was euthanized and the systemic blood supply was transcardially perfused with 10 mL phosphate buffered saline, and imaged after 30 minutes.
Since many potentially therapeutic proteins against brain-associated disorders are immunoglobulins, delivery of IgG and IgM through K16ApoE (SEQ ID NO: 22) in mouse brain was evaluated by micro-single photon emission computed tomography (microSPECT) imaging. For this, radioiodinated human IgG (Sigma, product # I 4506) and human IgM (Sigma, product # I 8260) were mixed with K16ApoE (SEQ ID NO: 22) and injected intravenously. Anesthetized animals were then subjected to imaging for 6 hours at 1 hour interval. Cardiac perfusion was then performed, after which final imaging was done at 30 minutes post-perfusion. Results from these experiments provide a number of indications (FIG. 4): First, it appears that peak delivery of both IgG and IgM into brain happens around 2 hours post-injection of the peptide-protein mix, after which uptake of the proteins in the brain remains relatively unchanged up to 6 hours (maximum time point tested). Second, cardiac perfusion appears to remove most of the radioactive protein in the vasculature, concomitantly increasing the difference between apparent brain-uptake of the protein with and without the carrier peptide (˜5-fold).

[5] = tested on: brain; set-up: species or system mice; details: mouse, in vivo
Description: FIG. 1 is a series of images illustrating the differences between delivery of Alexa-IgG complexed to K16ApoE (SEQ ID NO: 22) into brain and uncomplexed Alexa-IgG.
In this experiment, AlexaIgG488 was injected into mice with or without mixing with K16ApoE peptide (SEQ ID NO:22). Brain sections were made 1 hour after delivery.

[6] = tested on: brain; test: β-galactosidase delivery in brain, enzyme activity staining of brain slices; type: in vivo
Description: Required amount of the peptide and protein were mixed in a final volume of 300 μL PBS (phosphate buffered saline), and incubated at room temperature for 60 minutes. The mixture was vortexed for a few seconds, every fifteen minutes during the incubation period.
The mixture was injected intravenously as a bolus into the lumen of the femoral vein. This was accomplished using a heat pulled PE50 catheter. At the conclusion of the experiment, the mouse was euthanized with a lethal dose of sodium pentobarbital. Each mouse was perfused with 10 mL PBS. This perfusion was accomplished through the standard trans cardial method. The brain was removed from the skull and positioned to make an initial coronal slice at −2.0 mm bregma. Subsequently, 25 μm coronal sections were cut on a cryostat and placed on charged slides for staining of β-galactosidase activity.
Evaluation of β-galactosidase enzymatic activity was accomplished by an initial 15 minute fixation of the brain sections in 0.25% glutaraldehyde. The slides were washed with 3 changes of PBS for 5 minutes each and then rinsed in distilled water for 5 minutes. The brain sections were incubated in X-Gal (0.2%) working solution, pH 7.38, for 18 hours at 37° C. in covered containers. Following this incubation the sections were dehydrated and coverslips were applied.
To evaluate the potential of K16ApoE (SEQ ID NO: 22) for delivering a protein across the BBB, the enzyme β-galactosidase was injected in mice with or without prior mixing with K16ApoE (SEQ ID NO: 22) (at a protein to peptide molar ratio of 1:70). The experiment was repeated more than a dozen times. […] It is speculated that either X-gal or 5-bromo-4-chloroindole or both somehow leach out of this region faster than other regions of the brain resulting to a faint signal for β-galactosidase activity.

[7] = tested on: BBB; test: Necessity of covalent linking of K16 and ApoE moieties: β-galactosidase staining of brain sections; type: in vivo, mice; details: β-galactosidase mixed with the peptide(s); FIG. 7
Description: Delivery of β-galactosidase in brain with K16 peptide (SEQ ID NO: 4) alone (A), with ApoE peptide only (B), with K16 peptide (SEQ ID NO: 4)+ApoE peptide (C), and with K16APoE peptide (SEQ ID NO: 22) (D).
The necessity of covalent linking of the K16 (SEQ ID NO: 4) and ApoE (SEQ ID NO: 13) peptide moieties was evaluated for non-covalent transport of a protein across the BBB. For this, β-galactosidase was mixed with either the ApoE peptide, the peptide K16 (SEQ ID NO: 4), ApoE plus K16 (SEQ ID NO: 4) or with K16ApoE (SEQ ID NO: 22), and injected in mice.

Substance: KKKKKKKKKKKKKKKKLRLRLASHLRKLRKRLLRDL [mutant B, KKKK KKKK KKKK KKKK LRLR LASH LRKL RKRL LRDL]
- transport of β-galactosidase compared with wild-type ApoE blood-brain barrier agent [1]: at least as well as wild-type or better

Substance: KKKKKKKKKKKKKKKKLRLRLANHLRKLRKRLLRDA [mutant A, KKKK KKKK KKKK KKKK LRLR LANH LRKL RKRL LRDA]
- transport of β-galactosidase compared with wild-type ApoE blood-brain barrier agent [1]: worse than the wild-type

Substance: KKKKKKKKKKKKKKKKLRVRLASHLRKLRKRLLRDA [K16ApoE, KKKKKKKKKKKKKKKKLRVRLASHLRKLRKRLLRDA]
- Vp values in all the brain regions examined (in words) [2]: virtually unchanged
- damage of the BBB due to prior exposure to the peptide [2]: not damaged
- effect of the peptide by itself on the BBB [3]: did not seem to affect the BBB
- time until binding of injected peptide to proteins and cells in the circulation is virtually complete ([3]; iv): ≤ 10 min
- share of the injected immunoglobulins transported into the brain ([4]; IgG and IgM, under the experimental condition): about 1%
- difference between brain-uptake of the protein with and without the carrier peptide ([4]; IgG and IgM, after cardiac perfusion): ~5 fold
- time of peak delivery of IgG and IgM into brain ([4]; post-injection of peptide-protein mix, 70-fold molar excess of peptide, FIG. 4): around 2 hours
- contrast and enhancement of brain structures compared to uncomplexed AlexaIgG488 [5]: significantly brighter contrast and enhancement of brain structures
- areas of the brain reached by the delivered β-galactosidase ([6]; mouse, in vivo): virtually every area of the brain
- β-galactosidase activity in brain ([6]; mouse, in vivo): intense β-galactosidase activity

Substance: β-galactosidase: Bacterial β-galactosidase purchased from Calbiochem, enzyme injected alone [reference compound]
- β-galactosidase activity in brain ([6]; protein to peptide molar ratio 1:70 or enzyme alone, slices 6 hours after injection, FIG. 3A): no activity

Substance: KKKKKKKKKKKKKKKK [K16, KKKKKKKKKKKKKKKK]
- β-galactosidase staining in brain sections [7]: β-galactosidase staining only in slides from mice receiving β-galactosidase mixed with K16ApoE

Substance: KKKKKKKKKKKKKKKKLRVRLANHLRKLRKRLLRDL [mutant C, KKKK KKKK KKKK KKKK LRVR LANH LRKL RKRL LRDL]
- transport of β-galactosidase compared with wild-type ApoE blood-brain barrier agent [1]: at least as well as wild-type or better
